Source: paper PMC12040169 (PLOS Biology, 2025)
In brackets after ≈: the same amount, converted by molar mass.

Key:
[1] = test system: T1, CTL2-GFP (C. trachomatis L2/434/Bu, GFP-expressing); assay: microbe, parasite or virus in culture; set-up: species or system HeLa; C. trachomatis growth in HeLa, dose-response, mean of bulk GFP fluorescence and imaged total inclusion area; conditions: Chlamydia trachomatis, 28.5 h; mean of GFP and inclusion area
T1 construct: L2/434/Bu, GFP-expressing
In short: (§1)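 Infected cells treated with library compounds were read for bulk GFP (chlamydial growth) and resorufin fluorescence (host viability), then fixed, Hoechst-stained and imaged. Inclusion area and number from GFP, plus nuclei counts, served as additional growth and viability proxies; MICs derived as previously described.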

[2] = test system: T1, CTL2-GFP (C. trachomatis L2/434/Bu, GFP-expressing); assay: microbe, parasite or virus in culture; set-up: C. trachomatis growth in HeLa, dose-response, mean of bulk GFP fluorescence and imaged total inclusion area; conditions: Chlamydia trachomatis, HeLa, 28.5 h; mean of GFP and inclusion area
In short: as §1

[3] = test system: T2, B. adolescentis; assay: microbe, parasite or virus in culture; set-up: Microbial growth in liquid dilution assay, OD600 relative to DMSO control; conditions: Bifidobacterium adolescentis; estimated IC50; read-out: B. adolescentis, IC50 (µM) estimate
T2 construct: DSM 20083
Text: (§2) Compound effects on commensal microbes in dilution assay As our objective was to discover compounds that inhibit Chlamydia selectively but spare commensal bacteria, we further tested 15 of our top compounds (c1e–c10e and c1v–c5v) against five bacterial species, Escherichia coli, Lactobacillus reuteri, Enterococcus faecalis, Bacteroides thetaiotaomicron, and Bifidobacterium adolescentis, representing the four dominating phyla of the human gut microbiota. […] Exceptions were c3e and c5e, which at 30 µM were inhibitory to some species. […] Of note, c1e–c3e had little or no effect on the growth of an even larger set of species of gut bacteria, also including Blautia coccoides, Prevotella copri, Prevotella histicola, Bacteroides fragilis, and Dubosiella newyorkensis, when tested in radial diffusion assays, in which the bacteria were exposed to compounds for 24–48 h before measurements of growth inhibition zones (S10B Fig and S5G Data).

[4] = test system: T3, E. faecalis; assay: microbe, parasite or virus in culture; set-up: Microbial growth in liquid dilution assay, OD600 relative to DMSO control; conditions: Enterococcus faecalis; estimated IC50; read-out: E. faecalis, IC50 (µM) estimate
T3 construct: DSM 20478
Text: as §2

[5] = test system: T4, L. reuteri; assay: microbe, parasite or virus in culture; set-up: Microbial growth in liquid dilution assay, OD600 relative to DMSO control; conditions: Limosilactobacillus reuteri; estimated IC50; read-out: L. reuteri, IC50 (µM) estimate
T4 construct: DSM 20016
Text: as §2

[6] = test system: T5, E. coli; assay: microbe, parasite or virus in culture; set-up: Microbial growth in liquid dilution assay, OD600 relative to DMSO control; conditions: Escherichia coli; estimated IC50; read-out: E. coli, IC50 (µM) estimate
T5 construct: DSM 301
Text: as §2

[7] = test system: T6, B. thetaiotaomicron; assay: microbe, parasite or virus in culture; set-up: Microbial growth in liquid dilution assay, OD600 relative to DMSO control; conditions: Bacteroides thetaiotaomicron; estimated IC50; read-out: B. thetaiotaomicron, IC50 (µM) estimate
T6 construct: DSM 2079
Text: as §2

[8] = in vitro; set-up: Viability of infected HeLa host cells, resazurin conversion, bulk resorufin fluorescence relative to DMSO; conditions: human, hela cells; bulk resorufin, mean of 3
[9] = test system: T1, CTL2-GFP (C. trachomatis L2/434/Bu, GFP-expressing); assay: microbe, parasite or virus in culture; set-up: Intracellular C. trachomatis growth in HeLa cells, bulk GFP fluorescence relative to DMSO; conditions: Chlamydia trachomatis, HeLa, 28.5 h; bulk GFP
Description: (§3) MICs were calculated as described above.

[10] = test system: T1, CTL2-GFP (C. trachomatis L2/434/Bu, GFP-expressing); assay: microbe, parasite or virus in culture; set-up: species or system HeLa; Intracellular C. trachomatis growth in HeLa cells, bulk GFP fluorescence relative to DMSO; conditions: Chlamydia trachomatis, 28.5 h; bulk GFP
Description: as §3

SMILES | MIC [1] | IC50 [2] | IC50 [3] | IC50 [4] | IC50 [5] | IC50 [6] | IC50 [7] | viability at 28.5 h, 0.000416667 µM [8] | viability at 28.5 h, 0.00125 µM [8] | viability at 28.5 h, 0.00375 µM [8] | viability at 28.5 h, 0.0123333 µM [8] | viability at 28.5 h, 0.037 µM [8] | viability at 28.5 h, 0.111 µM [8] | viability at 28.5 h, 0.333 µM [8] | viability at 28.5 h, 1 µM [8] | viability at 28.5 h, 3 µM [8] | viability at 28.5 h, 10 µM [8] | viability at 28.5 h, 30 µM [8] | IC50 [9] | MIC [10]
N#Cc1c(Nc2cccc(C(F)(F)F)c2)sc(C(=O)c2ccc3c(c2)OCO3)c1N [c8e] | 0.936 µM (≈ 0.404 µg/mL) | 0.567 µM | > 30 µM | > 30 µM | > 30 µM | > 30 µM | > 30 µM | 88% | 94.7% | 88.4% | 85.7% | 86% | 87.3% | 85.7% | 94.3% | 81.6% | 77.1% | 62.5% |  | 
Cc1ccc(C(=O)/C=C/Nc2ccc(S(=O)(=O)Nc3onc(C)c3C)cc2)cc1 [c4v] |  |  | > 30 µM | > 30 µM | > 30 µM | > 30 µM | > 30 µM |  |  |  |  |  |  |  |  |  |  |  | 1.32 µM | 1.88 µM (≈ 0.775 µg/mL)
Cc1cc(NS(=O)(=O)c2ccc(NC(=O)COc3ccc(Cl)c(C)c3)cc2)no1 [c3v] |  |  | > 30 µM | > 30 µM | > 30 µM | > 30 µM | > 30 µM |  |  |  |  |  |  |  |  |  |  |  | 0.773 µM | 0.829 µM (≈ 0.361 µg/mL)
O=C(CSc1nnc(-c2cccnc2)o1)c1ccccc1 [c35e] | 11.9 µM (≈ 3.54 µg/mL) | 3.71 µM |  |  |  |  |  | 99.4% | 96.5% | 91.9% | 91.4% | 87% | 90.5% | 87% | 90.5% | 84.4% | 87% | 88.7% |  | 
CC(=O)N1CCc2sccc2C1c1ccccc1NCc1ccoc1 (centres unmarked) [c28e] | 5.24 µM (≈ 1.85 µg/mL) | 2.6 µM |  |  |  |  |  | 92.9% | 92.5% | 86% | 93.2% | 90.6% | 89.2% | 86.1% | 90.6% | 82.6% | 87.9% | 83% |  | 
CCc1nnc(NS(=O)(=O)c2ccc(NC(=O)COc3ccc4ccccc4c3)cc2)s1 [c5v] |  |  | > 30 µM | > 30 µM | > 30 µM | > 30 µM | > 30 µM |  |  |  |  |  |  |  |  |  |  |  | 1.43 µM | 2.24 µM (≈ 1.05 µg/mL)
O=C(Nc1ccc(F)c(F)c1)NC1CCC2CN(CCOc3ccccc3)CC2C1 (centres unmarked) [c9e] | 2.63 µM (≈ 1.09 µg/mL) | 0.641 µM | > 30 µM | > 30 µM | > 30 µM | > 30 µM | > 30 µM | 90.2% | 92.6% | 90.8% | 91.5% | 89% | 92% | 91.6% | 94.6% | 92.9% | 95.3% | 102% |  | 
